# Assay results taken from patent US5502035A, “N-terminus modified analogs of LHRH” (Tap Holdings Inc., priority 1994, dated 1996).
# Non-standard residues stand in square brackets, D forms with d. Residues, ends and D or L forms follow the SMILES beside them. *: point of attachment. Shikimoyl = O=C(C1=C[C@@H](O)[C@@H](O)[C@H](O)C1)*; dPhe(4-Cl) = N[C@H](Cc1ccc(Cl)cc1)C(=O)O; d2Nal = N[C@H](Cc1ccc2ccccc2c1)C(=O)O; Lys(iPr) = CC(C)NCCCC[C@H](N)C(=O)O; NMeY = CN[C@@H](Cc1ccc(O)cc1)C(=O)O; d3Pal = N[C@H](Cc1cccnc1)C(=O)O; Isonicotinoyl = O=C(c1ccncc1)*; Nicotinoyl = O=C(c1cccnc1)*; Picolinoyl = O=C(c1ccccn1)*; 2Furoyl = O=C(c1ccco1)*; X6 = O=C(c1ccoc1)*
# Molecular target: T1, LHRH (Rattus norvegicus, UniProt P30969)
# T1 construct: endogenous in cells; host or cells: rat pituitary cells (own knowledge of the cited Haviv 1989 method)
# T1 sequence (P30969 1-327): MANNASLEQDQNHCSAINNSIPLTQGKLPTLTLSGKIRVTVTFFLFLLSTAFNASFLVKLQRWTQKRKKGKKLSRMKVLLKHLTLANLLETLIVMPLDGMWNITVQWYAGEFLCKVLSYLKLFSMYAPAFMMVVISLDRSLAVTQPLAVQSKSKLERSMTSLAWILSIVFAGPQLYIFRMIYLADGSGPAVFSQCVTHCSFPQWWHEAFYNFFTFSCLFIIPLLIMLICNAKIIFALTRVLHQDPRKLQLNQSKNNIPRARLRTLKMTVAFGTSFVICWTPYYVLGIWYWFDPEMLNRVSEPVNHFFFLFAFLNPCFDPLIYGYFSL
# Experiment: in vitro test for LHRH antagonist potency (pA2)
# Type: cell-based
# Details: negative logarithm of the antagonist concentration required to shift the response curve produced by the agonist leuprolide to two-fold higher concentration
# Protocol: Representative compounds of the present invention were evaluated in an in vitro test for LHRH antagonist potency (pA2). The test employed the method detailed in F. Haviv, et al. J. Med. Chem., 32:2340-2344 (1989). The values of pA2 are the negative logarithms of the concentration of the particular antagonist test compound required to shift the response curve produced by the agonist leuprolide to two-fold higher concentration. (Leuprolide is the LHRH agonist having the structure 5-oxo-Pro^1 -His^2 -Trp^3 -Ser^4 -Tyr^5 -D-Leu^6 -Leu^7 -Arg^8 -Pro^9 -NHEt and is disclosed and claimed in U.S. Pat. No. 4,005,063.) Typically pA2 values of 9.5 or greater are indicative of good LHRH antagonist potency, with values of 10.0 or greater being preferred.
row,Structure (SMILES),Kb [nM]
1,"CC(C)C[C@H](NC(=O)[C@@H](CCCCNC(=O)c1cccnc1)NC(=O)[C@H](Cc1ccc(O)cc1)N(C)C(=O)[C@H](CO)NC(=O)[C@@H](Cc1cccnc1)NC(=O)[C@@H](Cc1ccc(Cl)cc1)NC(=O)[C@@H](Cc1ccc2ccccc2c1)NC(=O)CNC(=O)C1CCCO1)C(=O)N[C@@H](CCCCNC(C)C)C(=O)N1CCC[C@H]1C(=O)N[C@H](C)C(N)=O (mixture of isomers) [Example 3, N-(R,S)-Tetrahydrofur-2-oyl-Gly-D2Nal-D4ClPhe-D3Pal-Ser-NMeTyr-DLys(Nicotinyl) -Leu-Lys(N-epsilon-Isopropyl)-Pro-DAlaNH2]",0.0158
2,"CC(C)C[C@H](NC(=O)[C@@H](CCCCNC(=O)NNC(=O)c1cccnc1)NC(=O)[C@H](Cc1ccc(O)cc1)N(C)C(=O)[C@H](CO)NC(=O)[C@@H](Cc1cccnc1)NC(=O)[C@@H](Cc1ccc(Cl)cc1)NC(=O)[C@@H](Cc1ccc2ccccc2c1)NC(=O)CNC(=O)C1CCCO1)C(=O)N[C@@H](CCCCNC(C)C)C(=O)N1CCC[C@H]1C(=O)N[C@H](C)C(N)=O (mixture of isomers) [Example 11, N-(R,S)Tetrahydrofur-2-oyl-Gly-D2Nal-D4ClPhe-D3Pal-Ser-NMeTyr-DLys(Azagly-Nicotinyl) -Leu-Lys(N-epsilon-Isopropyl)-Pro-DAlaNH2]",0.038
3,"CC(C)C[C@H](NC(=O)[C@@H](CCCCNC(=O)CNC(=O)c1cccnc1)NC(=O)[C@H](Cc1ccc(O)cc1)N(C)C(=O)[C@H](CO)NC(=O)[C@@H](Cc1cccnc1)NC(=O)[C@@H](Cc1ccc(Cl)cc1)NC(=O)[C@@H](Cc1ccc2ccccc2c1)NC(=O)CNC(=O)C1CCCO1)C(=O)N[C@@H](CCCNC(=N)N)C(=O)N1CCC[C@H]1C(=O)N[C@H](C)C(N)=O (mixture of isomers) [Example 27b, N-(R,S)-Tetrahydrofur-2oyl-Gly-D2Nal-D4ClPhe-D3Pal-Ser-NMeTyr-DLys(Gly-Nic)-Leu-Arg-Pro-DAlaNH 2]",0.0135
4,"CC(C)C[C@H](NC(=O)[C@@H](CCCCNC(=O)NNC(=O)c1ccco1)NC(=O)[C@H](Cc1ccc(O)cc1)N(C)C(=O)[C@H](CO)NC(=O)[C@@H](Cc1cccnc1)NC(=O)[C@@H](Cc1ccc(Cl)cc1)NC(=O)[C@@H](Cc1ccc2ccccc2c1)NC(=O)CNC(=O)C1CCCO1)C(=O)N[C@@H](CCCCNC(C)C)C(=O)N1CCC[C@H]1C(=O)N[C@H](C)C(N)=O (mixture of isomers) [Example 30a, N-(R,S)-Tetrahydrofur-2-oyl-Gly-D2Nal-D4ClPhe-D3Pal-Ser-NMeTyr-DLys(Azagly-2Fur)-Leu-Lys(Isp)-Pro-DAlaNH2]",0.0479
5,"CC(C)C[C@H](NC(=O)[C@@H](CCCCNC(=O)c1cccnc1)NC(=O)[C@H](Cc1ccc(O)cc1)N(C)C(=O)[C@H](CO)NC(=O)[C@@H](Cc1cccnc1)NC(=O)[C@@H](Cc1ccc(Cl)cc1)NC(=O)[C@@H](Cc1ccc2ccccc2c1)NC(=O)CNC(=O)C1CCCO1)C(=O)N[C@@H](CCCCNC(C)C)C(=O)N1CCC[C@H]1C(=O)N(C)CC(N)=O (mixture of isomers) [Example 38, N-(R,S)-Tetrahydrofur-2-oyl-Gly-D2Nal-D4ClPhe-D3Pal-Ser-NMeTyr-DLys(Nicotinyl)-Leu-Lys(Isp)-Pro-SarNH2]",0.0309
6,"CC(C)C[C@H](NC(=O)[C@@H](CCCCNC(=O)c1cccnc1)NC(=O)[C@H](Cc1ccc(O)cc1)NC(=O)[C@H](CO)NC(=O)[C@@H](Cc1cccnc1)NC(=O)[C@@H](Cc1ccc(Cl)cc1)NC(=O)[C@@H](Cc1ccc2ccccc2c1)NC(=O)CNC(=O)C1CCCO1)C(=O)N[C@@H](CCCCNC(C)C)C(=O)N1CCC[C@H]1C(=O)N[C@H](C)C(N)=O (mixture of isomers) [Example 91, N (R,S)-2-Tetrahydrofuroyl-Gly-D2Nal-D4ClPhe-D3Pal-Ser-Tyr-DLys(N-epsilon-Nicotinyl) -Leu-Lys(N-epsilon-Isopropyl)-Pro-DAlaNH2]",0.00219
7,"CC(=O)N[C@H](Cc1ccc(O)cc1)C(=O)N[C@H](Cc1ccc2ccccc2c1)C(=O)N[C@H](Cc1ccc(Cl)cc1)C(=O)N[C@H](Cc1cccnc1)C(=O)N[C@@H](CO)C(=O)N(C)[C@@H](Cc1ccc(O)cc1)C(=O)N[C@H](CCCCNC(=O)c1cccnc1)C(=O)N[C@@H](CC(C)C)C(=O)N[C@@H](CCCCNC(C)C)C(=O)N1CCC[C@H]1C(=O)N[C@H](C)C(N)=O [Example 1, N-Ac-DTyr-D2Nal-D4ClPhe-D3Pal-Ser-NMeTyr-DLys(Nicotinyl)-Leu-Lys(N-epsilon- Isopropyl) -Pro-DAlaNH2] (Ac-[dY][d2Nal][dPhe(4-Cl)][d3Pal]S[NMeY][dK](Nicotinoyl)L[Lys(iPr)]P[dA]-NH2)",0.0178
8,"CC(C)C[C@H](NC(=O)[C@@H](CCCCNC(=O)c1cccnc1)NC(=O)[C@H](Cc1ccc(O)cc1)N(C)C(=O)[C@H](CO)NC(=O)[C@@H](Cc1cccnc1)NC(=O)[C@@H](Cc1ccc(Cl)cc1)NC(=O)[C@@H](Cc1ccc2ccccc2c1)NC(=O)CNC(=O)C1=C[C@@H](O)[C@@H](O)[C@H](O)C1)C(=O)N[C@@H](CCCCNC(C)C)C(=O)N1CCC[C@H]1C(=O)N[C@H](C)C(N)=O [Example 2a, N-Shikimyl-Gly-D2Nal-D4ClPhe-D3Pal-Ser-NMeTyr-DLys(N-epsilon-Nicotinyl) -Leu-Lys(N-epsilon-Isopropyl)-Pro-DAlaNH2] (Shikimoyl-G[d2Nal][dPhe(4-Cl)][d3Pal]S[NMeY][dK](Nicotinoyl)L[Lys(iPr)]P[dA]-NH2)",0.0282
9,"CC(C)C[C@H](NC(=O)[C@@H](CCCCNC(=O)c1cccnc1)NC(=O)[C@H](Cc1ccc(O)cc1)N(C)C(=O)[C@H](CO)NC(=O)[C@@H](Cc1cccnc1)NC(=O)[C@@H](Cc1ccc(Cl)cc1)NC(=O)[C@@H](Cc1ccc2ccccc2c1)NC(=O)CNC(=O)c1ccco1)C(=O)N[C@@H](CCCCNC(C)C)C(=O)N1CCC[C@H]1C(=O)N[C@H](C)C(N)=O [Example 2c, N-2-Furoyl-Gly-D2Nal-D4ClPhe-D3Pal-Ser-NMeTyr-DLys(N-epsilon-Nicotinyl) -Leu-Lys(N-epsilon-Isopropyl)-Pro-DAlaNH2] (2Furoyl-G[d2Nal][dPhe(4-Cl)][d3Pal]S[NMeY][dK](Nicotinoyl)L[Lys(iPr)]P[dA]-NH2)",0.00794
10,"CC(C)C[C@H](NC(=O)[C@@H](CCCCNC(=O)c1cccnc1)NC(=O)[C@H](Cc1ccc(O)cc1)N(C)C(=O)[C@H](CO)NC(=O)[C@@H](Cc1cccnc1)NC(=O)[C@@H](Cc1ccc(Cl)cc1)NC(=O)[C@@H](Cc1ccc2ccccc2c1)NC(=O)CNC(=O)c1ccoc1)C(=O)N[C@@H](CCCCNC(C)C)C(=O)N1CCC[C@H]1C(=O)N[C@H](C)C(N)=O [Example 2d, N-3Furoyl-Gly-D2Nal-D4ClPhe-D3Pal-Ser-NMeTyr-DLys(N-epsilon-Nicotinyl) -Leu-Lys(N-epsilon-Isopropyl)-Pro-DAlaNH2] (X6-G[d2Nal][dPhe(4-Cl)][d3Pal]S[NMeY][dK](Nicotinoyl)L[Lys(iPr)]P[dA]-NH2)",0.0126
11,"CC(C)C[C@H](NC(=O)[C@@H](CCCCNC(=O)c1cccnc1)NC(=O)[C@H](Cc1ccc(O)cc1)N(C)C(=O)[C@H](CO)NC(=O)[C@@H](Cc1cccnc1)NC(=O)[C@@H](Cc1ccc(Cl)cc1)NC(=O)[C@@H](Cc1ccc2ccccc2c1)NC(=O)CNC(=O)c1ccccn1)C(=O)N[C@@H](CCCCNC(C)C)C(=O)N1CCC[C@H]1C(=O)N[C@H](C)C(N)=O [Example 2e, N-Picolyl-Gly-D2Nal-D4ClPhe-D3Pal-Ser-NMeTyr-DLys(N-epsilon-Nicotinyl) -Leu-Lys(N-epsilon-Isopropyl)-Pro-DAlaNH2] (Picolinoyl-G[d2Nal][dPhe(4-Cl)][d3Pal]S[NMeY][dK](Nicotinoyl)L[Lys(iPr)]P[dA]-NH2; N-terminus assumed)",0.02
12,"CC(C)C[C@H](NC(=O)[C@@H](CCCCNC(=O)c1cccnc1)NC(=O)[C@H](Cc1ccc(O)cc1)N(C)C(=O)[C@H](CO)NC(=O)[C@@H](Cc1cccnc1)NC(=O)[C@@H](Cc1ccc(Cl)cc1)NC(=O)[C@@H](Cc1ccc2ccccc2c1)NC(=O)CNC(=O)c1cccnc1)C(=O)N[C@@H](CCCCNC(C)C)C(=O)N1CCC[C@H]1C(=O)N[C@H](C)C(N)=O [Example 2f, N-Nicotinyl-Gly-D2Nal-D4ClPhe-D3Pal-Ser-NMeTyr-DLys(N-epsilon-Nicotinyl) -Leu-Lys(N-epsilon-Isopropyl)-Pro-DAlaNH2] (Nicotinoyl-G[d2Nal][dPhe(4-Cl)][d3Pal]S[NMeY][dK](Nicotinoyl)L[Lys(iPr)]P[dA]-NH2)",0.00891
13,"CC(C)C[C@H](NC(=O)[C@@H](CCCCNC(=O)c1cccnc1)NC(=O)[C@H](Cc1ccc(O)cc1)N(C)C(=O)[C@H](CO)NC(=O)[C@@H](Cc1cccnc1)NC(=O)[C@@H](Cc1ccc(Cl)cc1)NC(=O)[C@@H](Cc1ccc2ccccc2c1)NC(=O)CNC(=O)c1ccncc1)C(=O)N[C@@H](CCCCNC(C)C)C(=O)N1CCC[C@H]1C(=O)N[C@H](C)C(N)=O [Example 2g, N-Isonicotinyl-Gly-D2Nal-D4ClPhe-D3Pal-Ser-NMeTyr-DLys(N-epsilon-Nicotinyl) -Leu-Lys(N-epsilon-Isopropyl)-Pro-DAlaNH2] (Isonicotinoyl-G[d2Nal][dPhe(4-Cl)][d3Pal]S[NMeY][dK](Nicotinoyl)L[Lys(iPr)]P[dA]-NH2)",0.00708
